What was measured:
Type in all cases: in vivo
heat pain of the mouse = test: Effect on the heat sensitivity of the mouse (hot plate, 52° C.); conditions: male Chbb:NMRI (SPF)-mice, oral (esophageal tube), dose increasing time of reaction by 100%
Description: The test performed according to a modification of the method described by CHEN and BECKMAN [Science, 113, 631 (1951)] in male Chbb:NMRI (SPF)-mice with an average weight of 20 grams.
The test substances were administered as trituration in 1% methyl cellulose (0.1 ml/10 gm of mouse) by means of an esophageal tube. Before treatment with the test substance, the animals were twice put on the hot plate at an interval of 30 minutes, whereby their individual times of reaction were measured. After treatment with a test substance, the times of reaction of the animals were again measured in an interval of 30 minutes.
From the average maximum increase of the time of reaction obtained after treatment with different doses, and after linear regression analysis according to LINDER, an ED100 dose with the confidence limits according to FIELLER was calculated. The ED100 dose is one which increased the time of reaction by 100%.

[1] = system: inflammation pain of the rat; test: Effect on the inflammation pain of the rat (Randall-Selitto, yeast-injected paw); conditions: male Chbb:THOM-rats, oral (esophageal tube), dose raising pain threshold by 50% vs controls
Description: The test arrangement corresponded to that indicated by RANDALL-SELITTO [Arch. Int. Pharmacodyn. 111, 409 (1957)]. Male Chbb:THOM-rats having body weights of from 100 to 130 grams received a subplantar injection of 0.1 ml of a 5% suspension of yeast cells in 5.55% glucose solution in a rear paw. At 11/2 and 21/4 hours, respectively, after injection of the phlogistic, the animals received various doses of the test substance as a trituration in 1% methyl cellulose (1 ml/100 g of animal) through an esophageal tube. Control animals received corresponding volumes of the vehicle.
Ninety and forty-five minutes, respectively, after application of the test substance (that is, three hours after the subplantar injection of the yeast suspension), the threshold pain was determined in the rat in terms of the […] of bearing pressure on a paw, based on the weight of the animals.
From the pain threshold, measured according to the different doses of the test substance, and with the linear regression analysis according to LINDER [Statistische Methoden, 4th ed., pp. 148-162, Birkhauser, Basel, 1964], and ED50 dose with the confidence limits according to FIELLER [Quart. J. Pharm. Pharmacol., 17, 117 (1944)] was determined. The ED50 dose is one in which the pain threshold rises by 50%, as compared to the controls.

mice = test: Acute toxicity in mice; conditions: oral, mice, 14 days
Description: (§1) The acute toxicity was determined in Chbb:NMRI (SPF)-mice of both sexes, having an average body weight of 20 gm. The test compounds were administered as a trituration in 1% methyl cellulose (0.5 ml/10 gm of animal) by means of an esophageal tube. The calculation of the LD50 values was effected according to the method of LITCHFIELD and WILCOXON [J. Pharmacol. Exp. Ther. 96, 99 (1949)], based on the percentage of animals which died within 14 days after administration of different doses.

Acute toxicity in mice = conditions: mouse, in vivo; Chbb:NMRI (SPF)-mice of both sexes, oral (esophageal tube), deaths within 14 days
Description: as §1

[2] = system: body temperature of the rat; test: Effect on the body temperature of the rat (antipyretic activity); conditions: Chbb:THOM-rats, oral (esophageal tube), dose decreasing rectal body temperature by 1.5° C.
Description: The temperature-lowering activity, i.e. antipyretic activity, was tested by the observation of the temperature curve given by rectally measured body temperatures of partially immobilized Chbb:THOM-rats having body weights of between 125 and 150 grams. The body temperatures were measured by thermocouples inserted into rectums. The test substances were administered as a trituration in a 1% methyl cellulose in portions of 1.0 ml/100 gm of animal using an esophageal tube.
From the values for the average maximum decline of temperature, which were gained after the administration of the different doses of the test substance, and after a linear regression analysis according to LINDER, an ED-1.5° C. was calculated with the confidence limits according to FIELLER as the dose which decreases the body temperature by 1.5° C.

[3] = 0.75 h, After Forty-five Minutes

| SMILES | ED100 (heat pain of the mouse) [mg/kg] | ED50 [1, 3] [mg/kg] | ED50 ([1]; 1.5 h, After Ninety Minutes) [mg/kg] | animals died after administration of this dose (mice; 8000 mg/kg (footnote ** of Table 5)) | LD50 at 336 h (Acute toxicity in mice) [mg/kg] | ED (-1.5 C) [2] [mg/kg] | survival of animals after administration of this dose (mice; 10000 mg/kg (footnote * of Table 5)) |
| --- | --- | --- | --- | --- | --- | --- | --- |
| Cc1cccc2sc(=O)[nH]c12 [F, 4-methyl-benzothiazol-2(3H)-one] | 113 | 174 | 202 | 4 out of 20 animals died | 8000 | 118 |  |
| Cc1ccc2sc(=O)[nH]c2c1 [G, 5-methyl-benzothiazol-2(3H)-one] | 178 | 103 | 97 |  | 2650 | 37 |  |
| O=c1[nH]c2ccc(F)cc2s1 [B, 6-fluoro-benzothiazol-2(3H)-one] | 165 | 121 | 76 |  | 1650 | 83 |  |
| O=c1[nH]c2cccc(Cl)c2s1 [C, 7-chloro-benzothiazol-2(3H)-one] |  | 106 | 105 |  | 10000 |  | all 10 animals survived |
| O=c1[nH]c2c(Cl)cccc2s1 [H, 4-chloro-benzothiazol-2(3H)-one] | 125 | 24 | 23 |  |  | 16 |  |
| COc1ccc2sc(=O)[nH]c2c1 [A, 5-methoxy-benzothiazol-2(3H)-one] | 218 | 90 | 150 |  | 1600 | 58 |  |
| COc1cc2[nH]c(=O)sc2cc1OC [E, 5,6-dimethoxy-benzothiazol-2(3H)-one] | 92 | 43 | 40 |  |  | 29 |  |
| O=c1[nH]c2ccc(Cl)cc2s1 [D, 6-chloro-benzothiazol-2(3H)-one] |  | 175 | 129 |  |  | 103 |  |
